According to paper PMC11218202, “Targeting of 3D oral cancer spheroids by αVβ6 integrin using near-infrared peptide-conjugated IRDye 680” (Cancer Cell International, 2024):

How the values were obtained:
HSC-3 cells [1] = experiment: Internalization studies in HSC-3 monolayers (4 °C vs 37 °C, endocytosis inhibitors), flow cytometry; type: cell-based, human; conditions: for reduction of cellular uptake of IRDye-A20 by endocytosis inhibitor: HSC-3 cells pre-incubated 30 min with Genistein 400 µM, Chlorpromazin or EIPA 100 µM, then IRDye-A20 500 nM for 3 h, n = 3–4
HSC-3 cells [2] = conditions: 24 h, 0.1–4 µM, serum-free medium, highest concentration 4 µM, p > 0.05
Experimental: (§1) Cells were seeded into 96-well plates (100 µL, 4.10^4 cells/mL) for 5 days, then culture medium was replaced with 0.1–4 µM of IRDye-conjugates diluted in serum-free medium for 24 h at 37 °C. Afterwards, cells were washed, fixed with 70% ethanol for 10 min and further incubated with 0.2% crystal violet in 20% ethanol for 15 min. After several washes, crystal violet was solubilized using 0.1% acetic acid and 50% ethanol and optical density was recorded at 540 nm with Multiskan microplate readers (Ascent, Labsystems). Cell viability was calculated by normalizing to that of the control condition.

MRC-5 cells = conditions: 24 h, 0.1–4 µM, serum-free medium, highest concentration 4 µM, p > 0.05
Experimental: as §1

H10 HSC-3 spheroids = experiment: Accumulation in homotypic H10 (HSC-3) spheroids, flow cytometry; type: cell-based, human

For CCN(c1nc(N)c(C(=O)N=C(N)N)nc1Cl)C(C)C [EIPA, (5-(N-Ethyl-N-isopropyl)-Amiloride)], the “reduction of cellular uptake of IRDye-A20 by endocytosis inhibitor” value (“reduction … by endocytosis inhibitor” for short) (HSC-3 cells [1]) was “not affected”.

For CN(C)CCCN1c2ccccc2Sc2ccc(Cl)cc21 [chlorpromazine, Chlorpromazin], the “reduction … by endocytosis inhibitor” value (HSC-3 cells [1]) was “not affected”.

With O=c1c(-c2ccc(O)cc2)coc2cc(O)cc(O)c12 [genistein, Genistein] the “reduction … by endocytosis inhibitor” value (HSC-3 cells [1]) was 30%.

In the case of “CGGGSGGGSLRDQTGLKNPVQLARVAV [IRDye-Scr, IRDye 680 conjugated to a scramble version of the A20 peptide, control for non-specific delivery]”, the “loss of viability (crystal violet)” value (HSC-3 cells [2]) was “Loss of viability was not detected”, the “loss of viability (crystal violet)” value (MRC-5 cells) was “Loss of viability was not detected” and the “inhibition of internalization at 4 °C versus 37 °C” value (HSC-3 cells [1]; HSC-3 monolayers, 3 h, 1-500 nM, n = 4) was “significant inhibition of internalization at 4 °C was observed only at the highest concentrations”. The “MFI, fold less compared to IRDye-A20” value (H10 HSC-3 spheroids; 100 nM, 24 h) was 20 fold, the “percentage of labeled cells” value (H10 HSC-3 spheroids; 3 h, maximum over 1-250 nM, n = 4–5) was 3% and the “percentage of labeled cells” value (H10 HSC-3 spheroids; 6 h, maximum over 1-250 nM, n = 4–5) was 7%. For the same compound, the “percentage of labeled cells” value (H10 HSC-3 spheroids; 24 h, 50 nM) was at most 3%, the “percentage of labeled cells” value (H10 HSC-3 spheroids; 24 h, 100 nM) was 11% and the “percentage of labeled cells” value (H10 HSC-3 spheroids; 24 h, 250 nM) was 45%.
